Results: patent US10543212B2, “Substituted amines for treating cardiac diseases” (Cardurion Pharmaceuticals, LLC, priority 2017, dated 2020)

target: T1, Full-length, GST-tagged, human CaMKIIδ (Homo sapiens, UniProt Q13557); experiment: CaMKIIδ binding assay (TR-FRET with BODIPY-labeled probe ligand); conditions: CaMKIIδ binding assay, results of Table 2
T1 construct: Full-Length, Glutathione-S-Transferase(GST)-Tagged, Human CaMKIIδ was purchased from Carna Biosciences; purchased Carna Biosciences 02-111
T1 sequence (Q13557 1-478 isoform Q13557-12): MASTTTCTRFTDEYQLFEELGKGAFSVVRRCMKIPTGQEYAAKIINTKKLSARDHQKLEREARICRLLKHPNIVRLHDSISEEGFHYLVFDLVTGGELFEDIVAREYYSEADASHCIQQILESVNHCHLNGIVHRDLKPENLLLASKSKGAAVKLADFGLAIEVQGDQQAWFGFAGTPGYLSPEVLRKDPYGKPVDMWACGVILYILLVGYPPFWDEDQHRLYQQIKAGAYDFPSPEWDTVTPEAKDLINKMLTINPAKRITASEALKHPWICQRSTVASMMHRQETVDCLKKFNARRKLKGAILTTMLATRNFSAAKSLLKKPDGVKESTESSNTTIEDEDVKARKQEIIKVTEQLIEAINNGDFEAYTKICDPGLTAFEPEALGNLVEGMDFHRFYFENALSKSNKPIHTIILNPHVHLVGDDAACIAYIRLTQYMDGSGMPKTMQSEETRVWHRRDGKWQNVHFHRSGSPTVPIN
Summary of the method: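 TR-FRET probe-displacement binding: 0.5 nM GST-CaMKIIδ with 10 μg/mL calmodulin, 1 mM CaCl2, 0.21 nM Tb-anti-GST Ab and 300 nM BODIPY probe in HEPES pH 7.6 buffer. Eight-point 4-fold dilutions, 1 hr at room temperature. IC50 from logistic fit; 100% inhibition defined by 3 μM parent compound.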

Row | Compound | IC50 [nM]
1 | COc1cc2c(cc1Nc1ncc(-c3ccc(Cl)c(O[C@@H](C)Cn4cnnn4)c3)cn1)CCN(CC1COC1)C2 [Example 475, (S)-N-(5-(3-((1-(1H-tetrazol-1-yl)propan-2-yl)oxy)-4-chlorophenyl)pyrimidin-2-yl)-7-methoxy-2-(oxetan-3-ylmethyl)-1,2,3,4-tetrahydroisoquinolin-6-amine] | < 10
2 | COCC(=O)N1CCc2cc(Nc3ncc(-c4ccc(Cl)c(O[C@@H](C)Cn5cnnn5)c4)cn3)c(OC)cc2C1 [Example 469, (S)-1-(6-((5-(3-((1-(1H-tetrazol-1-yl)propan-2-yl)oxy)-4-chlorophenyl)pyrimidin-2-yl)amino)-7-methoxy-3,4-dihydroisoquinolin-2(1H)-yl)-2-methoxyethan-1-one] | 10 to 100
3 | COc1cc2c(cc1Nc1ncc(-c3ccc(Cl)c(O[C@@H](C)Cn4cnnn4)c3)cn1)CCN(C=O)C2 [Example 471, (S)-6-((5-(3-((1-(1H-tetrazol-1-yl)propan-2-yl)oxy)-4-chlorophenyl)pyrimidin-2-yl)amino)-7-methoxy-3,4-dihydroisoquinoline-2(1H)-carbaldehyde] | 10 to 100
4 | COc1cc2c(cc1Nc1ncc(-c3ccc(Cl)c(O[C@@H](C)Cn4cnnn4)c3)cn1)CNCC2 [Example 461, (S)-N-(5-(3-((1-(1H-tetrazol-1-yl)propan-2-yl)oxy)-4-chlorophenyl)pyrimidin-2-yl)-6-methoxy-1,2,3,4-tetrahydroisoquinolin-7-amine] | < 10
5 | Cc1cc(N2CCC(N3CCOCC3)CC2)ccc1Nc1ncc(-c2ccc(Cl)c(O[C@@H](C)Cn3cnnn3)c2)cn1 [Example 453, (S)-5-(3-((1-(1H-tetrazol-1-yl)propan-2-yl)oxy)-4-chlorophenyl)-N-(2-methyl-4-(4-morpholinopiperidin-1-yl)phenyl)pyrimidin-2-amine] | < 10
6 | COC1CCC(N2CCC(n3cc(Nc4ncc(-c5ccc(Cl)c(OC(C)Cn6cnnn6)c5)cn4)c(C(F)(F)F)n3)CC2)CC1 (single isomer, unassigned; less polar) [Example 568, (S)-5-(3-((1-(1H-tetrazol-1-yl)propan-2-yl)oxy)-4-chlorophenyl)-N-(1-(1-(cis or trans-4-methoxycyclohexyl)piperidin-4-yl)-3-(trifluoromethyl)-1H-pyrazol-4-yl)pyrimidin-2-amine, less polar] | < 10
7 | COc1ccc(N2CCCC(N3CCOCC3)C2)cc1Nc1ncc(-c2ccc(Cl)c(O[C@@H](C)Cn3cnnn3)c2)cn1 (stereo partly drawn) [Example 455, 5-(3-(((S)-1-(1H-tetrazol-1-yl)propan-2-yl)oxy)-4-chlorophenyl)-N-(2-methoxy-5-(3-morpholinopiperidin-1-yl)phenyl)pyrimidin-2-amine] | 10 to 100
8 | COc1ccc(N2CCN(C3CCOCC3)CC2)cc1Nc1ncc(-c2ccc(Cl)c(O[C@@H](C)Cn3cnnn3)c2)cn1 [Example 582, (S)-5-(3-((1-(1H-tetrazol-1-yl)propan-2-yl)oxy)-4-chlorophenyl)-N-(2-methoxy-5-(4-(tetrahydro-2H-pyran-4-yl)piperazin-1-yl)phenyl)pyrimidin-2-amine] | < 10
9 | COc1cc2c(cc1Nc1ncc(-c3ccc(C#N)c(O[C@@H](C)Cn4cncn4)c3)cn1)C(=O)N(C1CCC1)C2 [Example 443, (S)-2-((1-(1H-1,2,4-triazol-1-yl)propan-2-yl)oxy)-4-(2-((2-cyclobutyl-6-methoxy-3-oxoisoindolin-5-yl)amino)pyrimidin-5-yl)benzonitrile] | 10 to 100
10 | COc1cc2c(cc1Nc1ncc(-c3ccc(Cl)c(O[C@@H](C)Cn4cnnn4)c3)cn1)CN(C(=O)C(C)(C)OC(C)=O)CC2 [Example 520, (S)-1-(7-((5-(3-((1-(1H-tetrazol-1-yl)propan-2-yl)oxy)-4-chlorophenyl)pyrimidin-2-yl)amino)-6-methoxy-3,4-dihydroisoquinolin-2(1H)-yl)-2-methyl-1-oxopropan-2-yl acetate] | ≥ 100

same assay, conditions: CaMKIIδ binding assay; activity class per Table 2

Row | Compound | IC50 [nM]
11 | C[C@@H](Cn1cnnn1)Oc1cc(-c2cnc(Nc3cn([C@H]4C[C@H](N5CCOCC5)C4)nc3OCC(F)(F)F)nc2)ccc1Cl [Example 943, 5-(3-(((S)-1-(1H-tetrazol-1-yl)propan-2-yl)oxy)-4-chlorophenyl)-N-(1-(trans-3-morpholinocyclobutyl)-3-(2,2,2-trifluoroethoxy)-1H-pyrazol-4-yl)pyrimidin-2-amine] | < 10
12 | C[C@@H](Cn1cnnn1)Oc1cc(-c2cnc(Nc3cn(CC(O)CN4CCOCC4)nc3OCC(F)(F)F)nc2)ccc1Cl (stereo partly drawn) [Example 913, 1-(4-((5-(3-(((S)-1-(1H-tetrazol-1-yl)propan-2-yl)oxy)-4-chlorophenyl)pyrimidin-2-yl)amino)-3-(2,2,2-trifluoroethoxy)-1H-pyrazol-1-yl)-3-morpholinopropan-2-ol] | < 10
13 | C[C@@H](Cn1cnnn1)Oc1cc(-c2cnc(Nc3cn(C4CC5(C4)CN(C4COCOC4)C5)nc3OCC(F)(F)F)nc2)ccc1Cl [Example 965, (S)—N-(1-(2-(1,3-dioxan-5-yl)-2-azaspiro[3.3]heptan-6-yl)-3-(2,2,2-trifluoroethoxy)-1H-pyrazol-4-yl)-5-(3-((1-(1H-tetrazol-1-yl)propan-2-yl)oxy)-4-chlorophenyl)pyrimidin-2-amine] | < 10
14 | C[C@@H](Cn1cnnn1)Oc1cc(-c2cnc(Nc3cn(CC4(O)CCNCC4)nc3C(F)(F)F)nc2)ccc1Cl [Example 882, (S)-4-((4-((5-(3-((1-(1H-tetrazol-1-yl)propan-2-yl)oxy)-4-chlorophenyl)pyrimidin-2-yl)amino)-3-(trifluoromethyl)-1H-pyrazol-1-yl)methyl)piperidin-4-ol] | < 10
15 | CC(Cn1cnnn1)Oc1cc(-c2cnc(Nc3cn(CC4(O)CCC(N5CCOCC5)CC4)nc3OCC(F)(F)F)nc2)ccc1Cl [Example 911, trans-1-((4-((5-(3-(((S)-1-(1H-tetrazol-1-yl)propan-2-yl)oxy)-4-chlorophenyl)pyrimidin-2-yl)amino)-3-(2,2,2-trifluoroethoxy)-1H-pyrazol-1-yl)methyl)-4-morpholinocyclohexan-1-ol] | < 10
16 | C[C@@H](Cn1cnnn1)Oc1cc(-c2cnc(Nc3cn(C4CC5(C4)CN(C4CCOC4)C5)nc3C(F)(F)F)nc2)ccc1Cl (stereo partly drawn) [Example 930, 5-(3-(((S)-1-(1H-tetrazol-1-yl)propan-2-yl)oxy)-4-chlorophenyl)-N-(1-(2-(tetrahydrofuran-3-yl)-2-azaspiro[3.3]heptan-6-yl)-3-(trifluoromethyl)-1H-pyrazol-4-yl)pyrimidin-2-amine] | < 10
17 | CC(C)c1nn(C2CC3(C2)CN(C(=O)OC(C)(C)C)C3)cc1Nc1ncc(-c2ccc(Cl)c(O[C@@H](C)Cn3cnnn3)c2)cn1 [Example 931, tert-butyl (S)-6-(4-((5-(3-((1-(1H-tetrazol-1-yl)propan-2-yl)oxy)-4-chlorophenyl)pyrimidin-2-yl)amino)-3-isopropyl-1H-pyrazol-1-yl)-2-azaspiro[3.3]heptane-2-carboxylate] | 10 to 100
18 | C[C@@H](Cn1cnnn1)Oc1cc(-c2cnc(Nc3cn(C4CC5(C4)CN(C4CCOCC4)C5)nc3OCC(F)(F)F)nc2)ccc1C(F)F [Example 939, (S)-5-(3-((1-(1H-tetrazol-1-yl)propan-2-yl)oxy)-4-(difluoromethyl)phenyl)-N-(1-(2-(tetrahydro-2H-pyran-4-yl)-2-azaspiro[3.3]heptan-6-yl)-3-(2,2,2-trifluoroethoxy)-1H-pyrazol-4-yl)pyrimidin-2-amine] | < 10

same assay, conditions: Table 2; CaMKIIδ binding assay, activity given as class A/B/C

Row | Compound | IC50 [nM]
19 | C[C@@H](Cn1cnnn1)Oc1cc(-c2cnc(Nc3cn(C4CCN(C5CCOCC5)CC4)nc3OCC(F)(F)F)nc2)ccc1F [Example 789, (S)-5-(3-((1-(1H-tetrazol-1-yl)propan-2-yl)oxy)-4-fluorophenyl)-N-(1-(1-(tetrahydro-2H-pyran-4-yl)piperidin-4-yl)-3-(2,2,2-trifluoroethoxy)-1H-pyrazol-4-yl)pyrimidin-2-amine] | < 10
20 | C[C@@H](Cn1cnnn1)Oc1cc(-c2cnc(Nc3cn([C@H]4CC[C@@H](N5CCC5)CC4)nc3C(F)(F)F)nc2)ccc1Cl [Example 778, 5-(3-(((S)-1-(1H-tetrazol-1-yl)propan-2-yl)oxy)-4-chlorophenyl)-N-(1-(cis-4-(azetidin-1-yl)cyclohexyl)-3-(trifluoromethyl)-1H-pyrazol-4-yl)pyrimidin-2-amine] | < 10
21 | C[C@@H](Cn1cnnn1)Oc1cc(-c2cnc(Nc3cn(CC4(CO)COC4)nc3C(F)(F)F)nc2)ccc1Cl [Example 732, (S)-(3-((4-((5-(3-((1-(1H-tetrazol-1-yl)propan-2-yl)oxy)-4-chlorophenyl)pyrimidin-2-yl)amino)-3-(trifluoromethyl)-1H-pyrazol-1-yl)methyl)oxetan-3-yl)methanol] | 10 to 100

same assay, conditions: Table 2; activity class for CaMKIIδ

Row | Compound | IC50 [nM]
22 | C[C@@H](Cn1cnnn1)Oc1cc(-c2cnc(Nc3cnn(CC4CC4)c3)nc2)ccc1Cl [Example 725, (S)-5-(3-((1-(1H-tetrazol-1-yl)propan-2-yl)oxy)-4-chlorophenyl)-N-(1-(cyclopropylmethyl)-1H-pyrazol-4-yl)pyrimidin-2-amine] | 10 to 100
23 | C[C@@H](Cn1cnnn1)Oc1cc(-c2cnc(Nc3cn(CC(O)C(F)(F)F)nc3C(F)(F)F)nc2)ccc1Cl (stereo partly drawn) [Example 728, 3-(4-((5-(3-(((S)-1-(1H-tetrazol-1-yl)propan-2-yl)oxy)-4-chlorophenyl)pyrimidin-2-yl)amino)-3-(trifluoromethyl)-1H-pyrazol-1-yl)-1,1,1-trifluoropropan-2-ol] | 10 to 100
24 | C[C@@H](Cn1cnnn1)Oc1cc(-c2cnc(Nc3cn(C4CCCNC4)nc3C(F)(F)F)nc2)ccc1Cl (stereo partly drawn) [Example 600, 5-(3-(((S)-1-(1H-tetrazol-1-yl)propan-2-yl)oxy)-4-chlorophenyl)-N-(1-(piperidin-3-yl)-3-(trifluoromethyl)-1H-pyrazol-4-yl)pyrimidin-2-amine] | < 10
